In paper PMC7230731 (Marine Drugs, 2020):

Tests used:
Format in all cases: cell-based, human
caspase-3 = assay: ELISA immunoassay, active caspase-3 level; details: for increase of caspase-3 level vs control: MCF-7 cells; for Caspase-3: active caspase-3, MCF-7 cells, IC50 concentration, 48 h
Method: (§1) Moreover, their effect on the level of caspase-3; the executioner caspase and p53 was evaluated in the MCF-7 cell line. […] In addition, they augmented the level of p53 by 15.4- and 11.75-fold, respectively in comparison to the control (Table 5, Figure 3).
(§2) Effects of treatment of breast cancer MCF-7 cells with bis-indoles 7e and 9a on the expression levels of the pro-apoptotic markers (Bax, caspase-3, and p53) in addition to the anti-apoptotic protein Bcl-2 marker was assessed by the use of ELISA colorimetric kits as per the manufacturer’s instructions, as described earlier.
(§3) The levels of the pro-apoptotic markers (Bax, caspase-3 and p53) as well as the anti-apoptotic marker Bcl-2 were determined using ELISA colorimetric kits per the manufacturer’s instructions. Breast cancer MCF-7 cells were cultured as a monolayer in T-25 flasks and were seeded to attain 30% confluency prior to treatment. Cells were […]
(§4) At the end of treatment, cells were collected via trypsinization and centrifuged at 10,000 rpm. The pellet was then rinsed with PBS and lysed in RIPA lysis buffer at 4 °C for 45 min, then centrifuged at 14,000 rpm for 20 min to remove the cellular debris. Lysates were then collected and stored at −80 °C for later protein determination using Pierce BCA Protein Assay Kit according to manufacturer’s recommendations.
(§5) The cell lysate was diluted 10 times, and 100 μL ([…]) was added to the wells of four separate microtiter plates for the four ELISA kits that were pre-coated with primary antibodies specific to Bax, Bcl-2, caspase-3 and p53 proteins, respectively. A secondary biotin-linked antibody specific to the protein captured by the primary antibody was further added to bind the captured protein, forming a “sandwich” of specific antibodies around the desired protein in the cell lysate. The streptavidin-HRP complex was then used to bind the biotin-linked secondary antibody through its streptavidin portion. The HRP domain reacted with the added TMB substrate to form a colored product that measured at 450 nm by a plate reader ChroMate-4300 after the reaction was terminated via the addition of stop solution. […]

Bax = assay: ELISA immunoassay, Bax level; details: MCF-7 cells; for Bax: IC50 concentration, 48 h
Text: (§6) Synchronization of the mitochondrial pathway is headed by the Bcl-2 family of proteins. These proteins are classified into two groups: anti-apoptotic proteins exemplified by Bcl-2 protein and the counteracting pro-apoptotic proteins including Bax protein [21]. As induction of the apoptotic machinery is one of the most useful strategies in cancer therapy, we investigated the effect of our compounds to boost the pro-apoptotic protein; Bax and reduce the anti-apoptotic protein; Bcl-2 in an attempt to explore the underlying mechanism for their cytotoxic activity (Table 1). […] Fortunately, both compounds markedly boosted the level of Bax by 8.3- and 6.4-fold, respectively (Table 4, Figure 3).
as §2, §3, §4, §5
Breast […]
cancer MCF-7 cells were cultured to a monolayer then treated with bis-indoles 7e and 9a at their IC50 concentration. […]

p53 = assay: ELISA immunoassay, p53 level; details: MCF-7 cells; for p53: IC50 concentration, 48 h
Method: as §1, §2, §3, §4, §5

Bax/Bcl-2 = Bax/Bcl-2 ratio from ELISA; details: MCF-7 cells; for Bax/Bcl-2: IC50 concentration, 48 h
Text: as §6, §2, §3, §4, §5

Bcl-2 = assay: ELISA immunoassay, Bcl-2 level; details: MCF-7 cells; for Bcl-2: IC50 concentration, 48 h
Text: as §6, §2, §3, §4, §5

MCF-7 cells [1] = assay: Annexin V-FITC/PI apoptosis assay; details: IC50 concentration; for Total (L.R % + U.R %): early + late apoptosis
Method: Annexin V-based flow cytometry analysis is a useful tool to investigate whether cell death is pertaining to physiological apoptosis or nonspecific necrosis. Evaluation of the apoptotic effect of bis-indoles 7e and 9a was carried out using AnxV-FITC/DAPI dual staining assay (Figure 4).
The apoptotic action of bis-indoles 7e and 9a was further explored through the investigation of their effect on the phosphatidylserine externalization in breast cancer MCF-7 cells, using Annexin-V-FITC Apoptosis Detection Kit according to manufacturer’s protocol, as reported earlier. […]
4. Annexin V-FITC Apoptosis Assay
Phosphatidylserine externalization was assayed using Annexin V-FITC/PI apoptosis detection kit (BD Biosciences, USA) according to the manufacturer’s instructions. Breast cancer MCF-7 cells were cultured to a monolayer then treated with bis-indoles 7e and 9a at their IC50 concentration. Briefly, cells were then harvested via trypsinization, and rinsed twice in PBS followed by binding buffer. Moreover, cells were re-suspended in 100 μL of binding buffer with the addition of 1 μL of FITC-Annexin V followed by an incubation period of 30 min at 4 °C. Cells were then rinsed in binding buffer and resuspended in 150 μL of binding buffer with the addition of 1 μL of DAPI (1 μg/μL in PBS). Cells were then analyzed using the flow cytometer BD FACS Canto II and the results were interpreted with FlowJo7.6.4 software (Tree Star, Ashland, OR, USA).

MCF-7 cells [2] = assay: Cell cycle analysis by DNA flow cytometry; details: IC50 concentration; for %G0-G1 / %G2/M / %S / %Sub-G1: 24 h
Method: Anticancer agents exert their cytotoxic action by aborting cellular proliferation at certain checkpoints. These checkpoints are distinguishable phases in the cell cycle, whose suppression results in termination of the cell proliferation.
The influence of bis-indoles 7e and 9a on cell cycle progression was examined in breast cancer MCF-7 cells, after 24 h of treatment, through DNA flow cytometric assay by the use of BD FACS Caliber flow cytometer, as described previously. The cell cycle distributions were calculated using CellQuest software (Becton Dickinson). […]
The two examined human breast cancer cell lines (MCF-7 and Breast MDA-MB-231), and non-tumorigenic human breast epithelial cell line (MCF-10A) have been obtained from American Type Culture Collection (ATCC). The cells were maintained in Dulbecco's modified Eagle's medium (DMEM) supplemented with 10% heat inactivated fetal calf serum (GIBCO), penicillin (100 U/ml) and streptomycin (100 µg/ml) at 37 °C in humidified atmosphere containing 5% CO2. Cells at a concentration of 0.50 x 106 were grown in a 25 cm2 flask in 5 ml of culture medium. […]
Breast cancer MCF-7 cells were treated with bis-indoles 7e and 9a for 24 h (at their IC50 concentration), and then cells were washed twice with ice-cold phosphate buffered saline (PBS). Subsequently, the treated cells were collected by centrifugation, fixed in ice-cold 70% (v/v) ethanol, washed with PBS, re-suspended with 100 μg/mL RNase, stained with 40 μg/mL PI, and analyzed by flow cytometry using FACS Calibur (Becton Dickinson, BD, Franklin Lakes, NJ, USA). The cell cycle distributions were calculated using CellQuest software 5.1 (Becton Dickinson).

| SMILES | increase of caspase-3 level vs control (caspase-3) [fold] | Caspase-3 (caspase-3) [pg/mg] | increase of Bax level vs control (Bax) [fold] | Bax (Bax) | increase of p53 level vs control (p53) [fold] | p53 (p53) [pg/mg] | Bax/Bcl-2 ratio augmentation vs control (Bax/Bcl-2) [fold] | Bax/Bcl-2 (Bax/Bcl-2) | decrease of Bcl-2 level vs control (Bcl-2) [fold] | Bcl-2 (Bcl-2) | Early Apoptosis (Lower Right %) (MCF-7 cells [1]) [%] | Late Apoptosis (Upper Right %) (MCF-7 cells [1]) [%] | increase in total apoptosis percentage vs control (MCF-7 cells [1]) [fold] | Total (L.R % + U.R %) (MCF-7 cells [1]) [%] | augmentation of proportion of cells in G2/M phase vs control (MCF-7 cells [2]) [fold] | augmentation of proportion of cells in Sub-G1 phase vs control (MCF-7 cells [2]) [fold] | %G0-G1 (MCF-7 cells [2]) [%] | %G2/M (MCF-7 cells [2]) [%] | %S (MCF-7 cells [2]) [%] | %Sub-G1 (MCF-7 cells [2]) [%] |
| --- | --- | --- | --- | --- | --- | --- | --- | --- | --- | --- | --- | --- | --- | --- | --- | --- | --- | --- | --- | --- |
| C=CCN1C(=O)C(=NNC(=O)Cc2c[nH]c3ccccc23)c2ccccc21 [Compound 9a, N′-(1-Allyl-2-oxoindolin-3-ylidene)-2-(1H-indol-3-yl)acetohydrazide] | 9.5 | 331.0 ± 12.5 | 6.4 | 243.6 ± 12.4 pg/mg of Total Protein | 11.75 | 482.3 ± 27.4 | 11.1 | 91.2 | 1.74 | 2.67 ± 0.16 ng/mg of Total Protein | 7.01 | 15.20 | 16.8 | 22.21 | 2.21 | 13.42 | 43.82 | 31.27 | 24.91 | 24.02 |
| O=C(Cc1c[nH]c2ccccc12)NN=C1C(=O)Nc2ccc([N+](=O)[O-])cc21 [Compound 7e, 2-(1H-Indol-3-yl)-N′-(5-nitro-2-oxoindolin-3-ylidene)acetohydrazide] | 11.7 | 409.2 ± 17.2 | 8.3 | 318.0 ± 10.5 pg/mg of Total Protein | 15.4 | 631.8 ± 35.8 | 18.65 | 153.6 | 2.25 | 2.07 ± 0.14 ng/mg of Total Protein | 9.56 | 21.76 | 23.7 | 31.32 | 3 | 18.77 | 31.66 | 42.9 | 25.44 | 33.61 |
